Assays:
[1] = Rat pharmacokinetics after a single intravenous dose; type: in vivo, Rats (male Sprague Dawley); conditions: single intravenous dose 0.5 mg/kg, plasma, individual rats
Procedure: Rats (male Sprague Dawley, approximately 300 g with jugular cannulae) were given a single intravenous dose of 0.5 mg/kg of budesonide or passively targeted nanoparticles (PTNP) encapsulating budesonide (prepared as in Example 16) at time=0. At various times after dosing, blood samples were collected from the jugular cannulae into tubes containing lithium heparin, and plasma was prepared. Plasma levels were determined by extraction of the budesonide from plasma followed by LCMS analysis.

[2] = system: indomethacin induced inflammatory bowel disease in rats; experiment: Rat model of inflammatory bowel disease (IBD); type: in vivo; conditions: 5 days, female rats
Procedure: Budesonide and Budesonide PTNP were compared in a model of inflammatory bowel disease (IBD) as an efficacy model of inflammation. In this model, female rats were given two subcutaneous doses of 8 mg/kg indomethacin at 24 hour intervals to induce lesions resembling those occurring in Crohn's disease in the small intestine. Intravenous daily treatment with vehicle, budesonide (0.02, 0.2 or 2 mg/kg) or budesonide PTNP (0.02, 0.2 or 2 mg/kg) or oral daily treatment with Dexamethasone (0.1 mg/kg) was initiated one day before indomethacin treatment (day −1) and continued for 5 total days (days −1 to 3). Animals were euthanized on day 4, and a 10 cm area at risk in the small intestine was scored for gross pathology and weighed.
Using a disease scoring system in which a score of 0 is normal, and a score of 5 indicates death due to IBD symptoms, normal rats have an average score of 0, and an average intestinal weight of 0.488 g.

CCCC1O[C@@H]2C[C@H]3[C@@H]4CCC5=CC(=O)C=C[C@]5(C)[C@H]4[C@@H](O)C[C@]3(C)[C@]2(C(=O)CO)O1 (some centres unmarked) [Budesonide, budesonide]
AUCinf [1]: 159 ng·h/mL
t1/2 [1]: 45 min
decrease of intestinal scores towards normal ([2]; 0.02 mg/kg intravenous daily): 52%
decrease of small intestine weights toward normal ([2]; 0.02 mg/kg intravenous daily): 52%
decrease of intestinal scores towards normal ([2]; 0.2 mg/kg intravenous daily): 53%
decrease of small intestine weights toward normal ([2]; 0.2 mg/kg intravenous daily): 53%
decrease of intestinal scores towards normal ([2]; 2 mg/kg intravenous daily): 59%
decrease of small intestine weights toward normal ([2]; 2 mg/kg intravenous daily): 59%

— US8518963B2, “Therapeutic polymeric nanoparticle compositions with high glass transition temperature or high molecular weight copolymers” (BIND Therapeutics, Inc., priority 2009, dated 2013)
